Experimental findings from ChEMBL document CHEMBL1201862, “PubChem BioAssay data set” (2004) are described below.

Counter-ions that a name gives are not always drawn.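 Five concentrations, 48 hours, 96-well plates. At the GI50, growth is halved.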 Active and inactive are the calls of the source. Rule as the data show it: active = GI50 up to about 1.1 µM and inactive = higher.

Test in all cases: NCI-60 cell line screen, 48 h
Assay [1] has as its system SK-MEL-2.
Assay [2] concerns SNB-19.
The test system of assay [3] is SNB-75.
Assay [4] relates to IGROV-1.
Assay [5] deals with MDA-MB-231.
The subject of assay [6] is M14.
Assay [7] has as its system HCT-15.
Assay [8] has as its system T47D.
For assay [9], the system named is DU-145.
For assay [10], the system named is RXF 393.
In assay [11] the test system is NCI-H23.
Assay [12] deals with COLO 205.
Assay [13] deals with A549.
In assay [14] the test system is HOP-62.
Assay [15] deals with SW-620.
Assay [16] relates to SN12C.
Assay [17] has as its system SK-OV-3.
Assay [18] deals with HT-29.
In assay [19] the test system is HL-60.

Consider `CCOC(=O)c1cn(C)c(=S)n2c1nc1ccccc12`, for which the GI50 in assay [1] is 40.2 µM (inactive); in assay [2], 83.8 µM (inactive); in assay [3], > 100 µM (inactive); in assay [4], 34.3 µM (inactive); in assay [5], 91.8 µM (inactive); in assay [6], > 100 µM (inactive). The GI50 in [7] is 91 µM; in assay [8], > 100 µM (inactive); in assay [9], > 100 µM (inactive); in assay [10], > 100 µM (inactive); in assay [11], 91.8 µM (inactive); in [12], > 100 µM (inactive). The GI50 in [13] is 62.1 µM (inactive); in [14], > 100 µM (inactive); in assay [15], > 100 µM (inactive); in [16], > 100 µM (inactive).

For the molecule `Cc1cc(-c2c(Br)cc(C(=O)O)n2C)on1`, the GI50 in [1] is > 100 µM (inactive); in assay [2], > 100 µM (inactive); in assay [3], > 100 µM (inactive); in assay [5] it was > 100 µM (inactive); in [6] it was > 100 µM (inactive); in assay [7], over 100 µM. Further, the GI50 in assay [8], in [9], in [11], in assay [17], in [12] and in assay [18] was > 100 µM (inactive) each time. Moreover, the GI50 in assay [19], in assay [13], in assay [14], in assay [15] and in assay [16] was > 100 µM (inactive) each time.

Regarding `O=C(CCO)OCCCCCC/C=C\CCCCCC/C=C\CCCCCCCCOC(=O)CCO`, the GI50 in assay [1] is 17.3 µM (inactive); in assay [2], 18.9 µM (inactive); in assay [3], 19.8 µM (inactive); in assay [4], 17.2 µM (inactive); in assay [5], 18.5 µM (inactive); in [6], 17.1 µM (inactive). In addition, the GI50 is 15.6 µM in assay [7]; 17.1 µM (inactive) in assay [8]; 16.4 µM (inactive) in assay [9]; 18.9 µM (inactive) in [10]; 17.9 µM (inactive) in assay [11]; 19.9 µM (inactive) in assay [17]. Besides, the GI50 in assay [12] was > 100 µM (inactive); in assay [18] it was 17.7 µM (inactive); in assay [19] it was 12.2 µM (inactive); in [13], 15.9 µM (inactive); in assay [14], 17.1 µM (inactive); in assay [15], 26.6 µM (inactive). Besides, the GI50 in assay [16] is 17.2 µM (inactive).

As to `c1ccc([C@H]2CN3CCSC3=N2)cc1` [LEVAMISOLE HYDROCHLORIDE], the GI50 in [1], in assay [2], in [3], in [4], in assay [5] and in assay [6] was > 100 µM (inactive) in each case. Besides, the GI50 in assay [7] is over 100 µM; in [8], > 100 µM (inactive); in [9] it was > 100 µM (inactive); in assay [10], > 100 µM (inactive); in assay [11], > 100 µM (inactive); in assay [17], > 100 µM (inactive). The GI50 in assay [12], in [18], in assay [19], in assay [13], in [14] and in assay [15] was > 100 µM (inactive) throughout. For the same molecule, in assay [16], the GI50 is > 100 µM (inactive).
